From article PMC6984391, “Anion carriers as potential treatments for cystic fibrosis: transport in cystic fibrosis cells, and additivity to channel-targeting drugs” (Chemical Science, 2019)

Experiment: Cl-/NO3- exchange in LUVs with preincorporated anionophore (lucigenin method)
Assay type: biochemical
Conditions: transporter preincorporated in LUVs (70% POPC + 30% cholesterol), 25 mM NaCl gradient, 225 mM NaNO3; new compound or new data
Procedure: The four new anionophores were tested for affinity to Cl^– (in CHCl3 and DMSO, with tetra-alkylammonium counter-ions), and for anion transport (Cl^–/NO3^– exchange) when preloaded into 200 nm large unilamellar vesicles (LUVs). The latter assay was performed using the well-established “lucigenin method”[30] in which Cl^– influx into vesicles is followed through quenching of fluorescence from the halide-sensitive fluorophore lucigenin. The results are listed in Table 1, accompanied by corresponding values for the previously-reported compounds where available. […] In this test, anion transport by anionophores delivered externally to LUVs is compared with their action when preloaded into LUV membranes.[24],[29],[32]
3. Transport studies in vesicles
Transport measurements in vesicles with preincorporated anionophores.
1-Palmitoyl-2-oleoyl-sn-glycero-3-phosphocholine (POPC) was obtained from Avanti® Polar Lipids, Inc. An extrusion apparatus and 200 nm polycarbonate membranes were obtained from GC Technology Ltd. All lipid and receptor solutions were prepared using chloroform that had been deacidified by passage through a flash chromatography column containing basic alumina, and all aqueous solutions were prepared using deionised water that had been passed through a Millipore filtration system.
POPC and cholesterol solutions (~10 mM) in deacidified chloroform were combined with a solution of transporter in methanol or deacidified chloroform in a 5 mL round bottomed flask.
Volumes of the aliquots were calculated from the concentrations of the lipid solution to obtain a POPC to cholesterol ratio of 7:3 (for instance by combining 4.20 µmol POPC and 1.80 µmol cholesterol). The ratio of anionophore to lipid (POPC + cholesterol) was either 1:2500 or 1:25000, as specified in the experiments. The solvents from the lipid/receptor mixture were evaporated under a stream of N2 and the lipid film was dried under high vacuum for 1 h. The residue was hydrated with 500 µL of an aqueous solution of 10,10'-dimethyl-9,9'-biacridinium nitrate (lucigenin, 0.8 mM) and NaNO3 (225 mM), sonicated for 30 s and stirred for 1 h to give heterogeneous vesicles. Multilamellar vesicles were disrupted by 10 freeze-thaw cycles and then the solution was diluted to 1 mL (by adding 0.5 mL of 225 mM NaNO3) and carefully extruded (29 times) through a polycarbonate membrane (200 nm pore size) to give a uniform distribution of LUVs with an average diameter of ~200 nm.2 The external lucigenin was removed by passing the solution though a size exclusion column (containing ~2 g Sephadex 50G, eluted with 225 mM NaNO3). The collected vesicles were further diluted with NaNO3 solution (225 mM) to obtain a vesicle solution with 0.4 mM lipid concentration. 3.00 mL of this vesicle solution was placed in a quartz cuvette with a small stir bar and the fluorescence intensity (excitation at 450 nm, emission at 535 nm) was measured over time at 25 °C, using a PerkinElmer LS45 fluorescence spectrometer. 75 µL of aqueous NaCl (1.0 M in 225 mM NaNO3, to give an overall external chloride concentration of 25 mM) was added ~30 seconds after the start of the experiment and the fluorescence intensity was measured for another 14 […]
Fluorescence data were collected for at least four replicate experiments. The plateau (before addition of chloride) and the vertical drop (the first 1-2.5 seconds after chloride addition, due to quenching of external lucigenin) were removed. Next the data were normalized: all fluorescence values (F) were divided by the fluorescence value before addition of chloride (F0).
Initial rates (I) were obtained from fluorescence -decay curves (0-500 s) by fitting their inverse (F0/F) to a double exponential decay function:
Differentiating this gives F = abe−bt + cde−dt […]
and substituting t = 0 gives the following equation for initial rate: I = ab + cd Specific initial rates [I] were obtained by dividing the initial rates by the anionophore to lipid […]

COCCOCCOC(=O)[C@]12CC[C@@H](NC(=O)Nc3ccc(C(F)(F)F)cc3)C[C@@H]1C[C@@H](NC(=O)Nc1ccc(C(F)(F)F)cc1)CC2 [Compound 9]
Specific initial rate [I]: 9 s^–1

COCCOCCOC(=O)[C@]12CC[C@@H](NC(=O)Nc3cc(C(F)(F)F)cc(C(F)(F)F)c3)C[C@@H]1C[C@@H](NC(=O)Nc1cc(C(F)(F)F)cc(C(F)(F)F)c1)CC2 [Compound 10]
Specific initial rate [I]: 19 s^–1

CCOC(=O)[C@]12CC[C@@H](NC(=S)Nc3ccc([N+](=O)[O-])cc3)C[C@@H]1C[C@@H](NC(=S)Nc1ccc([N+](=O)[O-])cc1)CC2 [Compound 12]
Specific initial rate [I]: 310 s^–1

CCCCCCCCOC(=O)[C@]12CC[C@@H](NC(=S)Nc3ccc([N+](=O)[O-])cc3)C[C@@H]1C[C@@H](NC(=S)Nc1ccc([N+](=O)[O-])cc1)CC2 [Compound 13]
Specific initial rate [I]: 370 s^–1

FC(F)(F)c1ccc(NC(=S)NCCN(CCNC(=S)Nc2ccc(C(F)(F)F)cc2)CCNC(=S)Nc2ccc(C(F)(F)F)cc2)cc1 [Compound 18]
Specific initial rate [I]: 36 ^b s^–1

FC(F)(F)c1cc(NC(=S)NCCN(CCNC(=S)Nc2cc(C(F)(F)F)cc(C(F)(F)F)c2)CCNC(=S)Nc2cc(C(F)(F)F)cc(C(F)(F)F)c2)cc(C(F)(F)F)c1 [Compound 19]
Specific initial rate [I]: 590 ^b s^–1
